Reference: patent US7214495B2, “Screening method” (Takeda Pharmaceutical Company Limited, priority 2002, dated 2007)
Where two headings read alike, the source gives them in different places.

Tests used:
Mouse GPR40 = biological target: T1, Mouse GPR40 (Mus musculus, UniProt Q76JU9); assay: EC50 by FLIPR calcium assay in CHO cells stably expressing mouse GPR40; assay type: cell-based
T1 construct: expressed in transfected cells
Description: (§1) For determination of EC50 values, the CHO cell lines in which human-, mouse- and rat-derived GPR40 was stably expressed were used. Unless otherwise indicated, these CHO cell lines were incubated in α-MEM medium (Invitrogen) supplemented with 10% fetal calf serum (Invitrogen).
(§2) On the day before assay, the cells incubated to almost confluent stage were rinsed with PBS (Invitrogen), then scraped in 0.05% trypsin-EDTA solution (Invitrogen) and recovered by centrifugal operation. The number of the cells obtained was counted and diluted so as to contain 3×10^5 cells/1 mL of the medium. The dilution was dispensed in a Black welled 96-well plate (Coster) in 100 μL/well, followed by incubation overnight in a CO2 incubator. To the thus prepared CHO cells, various test samples were added and the changes in intracellular calcium level in this case were measured using FLIPR (Molecular Device). In order to determine the changes in the intracellular calcium ion level on FLIPR, the cells were pre-treated by the following procedures.
(§3) First, for the purpose of adding a fluorescent dye Fluo-3 AM (DOJIN) to the cells or washing the cells immediately before the FLIPR assay, an assay buffer was prepared. A solution obtained by adding 20 mL of 1M HEPES (pH 7.4) (DOJIN) to 1000 mL of HBSS (Invitrogen) was prepared (hereinafter HBSS/HEPES solution), to which 10 mL of a solution mixture obtained by dissolving 710 mg of Probenecid (Sigma) in 5 mL of 1N NaOH and further adding 5 mL of HBSS/HEPES solution was added. The resulting solution was used as the assay buffer. Next, 50 μg of Fluo-3AM was dissolved in 21 μL of DMSO (Wako) and an equal volume of 20% Pulronic acid (Molecular Probes) was added to and mixed with the solution. The mixture was then added to 10.6 mL of the assay buffer supplemented with 105 μL of fetal calf serum to prepare a fluorescent dye solution. […], the medium for the CHO cells again plated in a Black welled 96-well plate was removed. Immediately thereafter, the fluorescent dye solution was dispensed in 100 μL each/well and the cells were incubated in a CO2 incubator for an hour so that the fluorescent dye was taken up into the cells. The cells after the incubation was washed with the assay buffer described above and set on FLIPR. […] After the pre-treatment above was made, the changes in intracellular calcium level after the addition of various test samples were measured on FLIPR.

human GPR40 = biological target: T2, human GPR40 (Homo sapiens, UniProt O14842); assay: EC50 by FLIPR calcium assay in CHO cells stably expressing human GPR40; assay type: cell-based
T2 construct: The resulting fragment (ca. 1 kb) was introduced into vector pAKKO-111, which was used for transfection of CHO cells; expressed in transfected cells
Description: as §1, §2, §3

Rat GPR40 = biological target: T3, Rat GPR40 (Rattus norvegicus, UniProt Q8K3T4); assay: EC50 by FLIPR calcium assay in CHO cells stably expressing rat GPR40; assay type: cell-based
T3 construct: expressed in transfected cells
Description: as §1, §2, §3

[1] = test system: mouse pancreatic β cell line MIN6; assay: Insulin secretion from MIN6 in KRBH buffer (immunoassay); assay type: cell-based; conditions: 22 mM glucose KRBH, 90 minutes
Description: The mouse pancreatic β cell line MIN6 incubated in a flask was scraped in PBS containing 2.5 mM EDTA and plated in a 96-well plate followed by incubation for 2 days. The medium used was the same as in EXAMPLE 24, namely, 4.5 g/l of glucose-containing Dulbecco's Modified Eagle Medium (DMEM, Invitrogen, Inc.) supplemented with 15% fetal calf serum (ThermoTrace, Inc.), 5.5 μM 2-mercaptethanol (Invitrogen, Inc.), 20 mM HEPES pH 7.3, 100 U/ml penicillin and 100 μg/ml streptomycin. The cells were washed twice with modified Krebs-Ringer bicarbonate buffer (KRBH, 116 mM NaCl, 4.7 mM KCl, 1.2 mM KH2PO4, 1.2 mM MgSO4, 2.5 mM CaCl2, 25 mM NaHCO3, 24 mM HEPES, pH 7.3), followed by preincubation at 37° C. in 5% CO2 for 30 minutes. The fatty acid diluted/prepared using the aforesaid KRBH buffer added with 22 mM glucose was added to the cells after the preincubation, followed by incubation under the conditions of 37° C. in 5% CO2 for 90 minutes. After the incubation, the supernatant of the cells was recovered and stored in a frozen state. The insulin content in the supernatant was assayed using an insulin immunoassay kit commercially available (Amersham Pharmacia, Inc.).
Based on the method of EXAMPLE 25, effects of glucose level when added with fatty acids were examined. The level of glucose, which was added to KRBH upon the addition of fatty acids, was varied to 0, 5.5, 11 and 22 mM to study the effects.
The insulin secretion enhancing activity in the m40i103-introduced MIN6 cells using HVJ Envelope VECTOR KIT GenomONE based on the method of EXAMPLE 18 was examined. The insulin secretion enhancing activity by fatty acids was examined according to the method of EXAMPLE 25.
Based on the procedures of EXAMPLE 25, an essential prerequisite of Ca^2+ ions in the extracellular fluid was examined. In preincubation and incubation with a sample, Ca^2+ ions were removed and 0.1 mM EGTA, which was a reagent for chelating Ca^2+ ions, was further added, and then the insulin secretion enhancing activity by fatty acids was examined in this case.
Based on the method of EXAMPLE 25, effects of Ca^2+ channel blocker (Nifedipine) and MAP kinase inhibitor (PD98059) were examined. In preincubation and incubation with a sample, the insulin secretion enhancing activity by fatty acids was examined when Nifedipine (10 μM) or PD98059 (50 μM) was added.
It is known that fatty acids have the property of binding to albumin. Based on the method of EXAMPLE 25, effects were examined when bovine serum albumin (BSA) was present. In preincubation and incubation with a sample, the insulin secretion activity by fatty acids was examined when 0.1% BSA was added to the buffer.

human-derived GPR40 = biological target: T4, human-derived GPR40 (Homo sapiens, UniProt O14842); assay: Intracellular calcium change (FLIPR) in CHO-K1 cells transiently expressing GPR40; assay type: cell-based; conditions: added in 10^−5 M to 10^−6 M; no response in vector-only control cells
T4 construct: The DNA fragment encoding human GPR40 was acquired by the following PCR procedures; expressed in transfected cells; host or cells: CHO-K1 (transient, Lipofectamine)
Description: The CHO-K1 cell line was cultured in HAM F-12 medium (Invitrogen) containing 10% fetal calf serum (Invitrogen), unless otherwise indicated. One day before transfection, 4.5×10^5 cells per 10 cm^2 were plated, followed by incubation in a CO2 incubator adjusted to a concentration of 5% CO2 at 37° C. for at least 15 hours. Using Lipofectamine reagent (Invitrogen), transfection procedures were carried out by modifications of the method attached to the reagent. When a 6-well plate was used for the incubator, the following procedures were performed. First, 2 tubes each having a 1.5 ml volume were prepared and 100 μl each of Opti-MEM-I medium (Invitrogen) was dispensed in each tube. Next, 1 μg of the expression vector was charged in one tube and in another tube, 6 μl of Lipofectamine reagent was charged, which were mixed together. The mixture was settled for 20 minutes at room temperature. To the solution, 800 μl of Opti-MEM-I medium was added and the resulting solution mixture for transfection was added to CHO-K1 cells, which had been previously washed with Opti-MEM-I medium. Then, the cells were incubated in a CO2 incubator for 6 hours. After the incubation, the cells were rinsed with PBS (Invitrogen), then scraped using 0.05% trypsin-EDTA solution (Invitrogen) and recovered by centrifugal operation. The cells obtained were counted and diluted to 5×10^4 cells per 200 μl of the medium. The dilution was dispensed onto a Black walled 96-well plate (Costar) in 200 μl each per well, followed by incubation overnight in a CO2 incubator. Various test samples were added to the CHO-K1 cells in which the receptor was transiently expressed by the transfection operation described above, whereby changes in the intracellular calcium ion level were determined using FLIPR (Molecular Device). In order to determine the changes in the intracellular calcium ion level on FLIPR, the cells were pre-treated by the following procedures. First, for the purpose of adding a fluorescent dye Fluo-3 AM (DOJIN) to the cells or washing the cells immediately before the FLIPR assay, an assay buffer was prepared. A solution obtained by adding 20 ml of 1M HEPES (pH 7.4) (DOJIN) to 1000 ml of HBSS (Invitrogen) was prepared (hereinafter HBSS/HEPES solution), to which 10 ml of a solution mixture obtained by dissolving 710 mg of Probenecid (Sigma) in 5 ml of 1N NaOH and further adding 5 ml of HBSS/HEPES solution was added. The resulting solution was used as the assay buffer. Next, 50 μg of Fluo-3AM was dissolved in 21 μl of DMSO (DOJIN) and an equal volume of 20% Pulronic acid (Molecular Probes) was added to and mixed with the solution. The mixture was then added to 10.6 ml of the assay buffer supplemented with 105 μl of fetal calf serum to prepare a fluorescent dye solution. The medium for the transfection-treated CHO-K1 cells was removed. Immediately thereafter, the fluorescent dye solution was dispensed in 100 μl each/well and the cells were incubated in a CO2 incubator for an hour so that the fluorescent dye was taken up into the cells. The cells after the incubation was washed with the assay buffer described above and set on FLIPR. A test sample added to the receptor-expressed CHO-K1 cells was prepared using the assay buffer and set on FLIPR at the same time. After various test samples were added thereto.
Following the pre-treatment above, changes in intracellular calcium level after addition of various test samples were measured on FLIPR.

MIN6 cells = assay: FLIPR intracellular calcium assay using MIN6; assay type: cell-based, mouse; conditions: 10 μM fatty acid
Description: Mouse pancreatic β cell line MIN6 incubated in a flask was scraped using PBS containing 2.5 mM EDTA and diluted so as to contain 3×10^5 cells/1 mL of the medium. The dilution was dispensed in a Black welled 96-well plate (Coster) in 100 μL/well, followed by incubation in a CO2 incubator for 2 days. The medium used was 4.5 g/l of glucose-containing Dulbecco's Modified Eagle Medium (DMEM, Invitrogen, Inc.) supplemented with 15% fetal calf serum (ThermoTrace, Inc.), 5.5 μM 2-mercaptethanol (Invitrogen, Inc.), 20 mM HEPES pH 7.3, 100 U/ml penicillin and 100 μg/ml streptomycin. To the thus prepared MIN6 cells, various fatty acids (10 μM) were added and the changes in intracellular calcium level in this case were measured using FLIPR (Molecular Device). The changes in the intracellular calcium ion level on FLIPR were assayed in accordance with the procedures described in EXAMPLE 24.

[2] = intracellular calcium, FLIPR, stable CHO line, read-out: EC50 Mouse GPR40
[3] = intracellular calcium, FLIPR, stable CHO line, read-out: EC50 Human GPR40
[4] = intracellular calcium, FLIPR, stable CHO line, read-out: EC50 Rat GPR40
[5] = intracellular calcium, FLIPR, stable CHO line

T2 sequence (O14842 whole entry, the tested form may be a part): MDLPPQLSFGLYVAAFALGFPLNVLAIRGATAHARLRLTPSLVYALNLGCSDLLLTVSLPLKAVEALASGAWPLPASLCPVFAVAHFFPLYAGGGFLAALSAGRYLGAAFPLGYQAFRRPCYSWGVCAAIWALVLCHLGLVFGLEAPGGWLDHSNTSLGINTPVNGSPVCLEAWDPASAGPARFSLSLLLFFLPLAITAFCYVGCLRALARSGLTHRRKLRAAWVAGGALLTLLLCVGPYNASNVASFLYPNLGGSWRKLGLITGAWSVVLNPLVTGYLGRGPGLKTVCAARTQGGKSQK
T4 sequence (O14842 whole entry, the tested form may be a part): as above
T1 sequence (Q76JU9 whole entry): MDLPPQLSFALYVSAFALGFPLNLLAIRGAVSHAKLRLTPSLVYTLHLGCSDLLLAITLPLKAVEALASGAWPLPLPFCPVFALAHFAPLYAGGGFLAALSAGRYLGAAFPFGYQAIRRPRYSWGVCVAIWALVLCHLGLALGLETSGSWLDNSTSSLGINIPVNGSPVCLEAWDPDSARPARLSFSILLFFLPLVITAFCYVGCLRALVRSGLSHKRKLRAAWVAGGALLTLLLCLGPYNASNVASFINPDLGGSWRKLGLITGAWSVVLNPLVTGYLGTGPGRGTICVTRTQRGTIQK
T3 sequence (Q8K3T4 whole entry): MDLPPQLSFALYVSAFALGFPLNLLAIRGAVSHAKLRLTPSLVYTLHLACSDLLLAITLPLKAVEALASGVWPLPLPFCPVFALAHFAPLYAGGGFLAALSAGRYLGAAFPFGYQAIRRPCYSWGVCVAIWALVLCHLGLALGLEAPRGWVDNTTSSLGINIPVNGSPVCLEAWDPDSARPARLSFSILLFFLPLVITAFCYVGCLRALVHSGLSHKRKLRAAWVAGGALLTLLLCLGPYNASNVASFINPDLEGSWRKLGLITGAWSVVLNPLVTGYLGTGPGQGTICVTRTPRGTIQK

EC50 (Mouse GPR40; [2])	EC50 (human GPR40; [3])	EC50 (Rat GPR40; [4])	Compound	response (increase in intracellular calcium level) of GPR40-expressing CHO-K1 cells (human-derived GPR40)	further results
> 100 µM	43 ± 2.2 µM	> 100 µM	CCCCCCCCCC(=O)O [Capric acid (C10), Capric acid]		
			CC/C=C\C/C=C\C/C=C\CCCCCCCC(=O)O [α-Linolenic acid (C18:3), α-Linolenic acid]		EC50 (Mouse GPR40): 3.6 ± 0.3 µM; insulin secretion enhancing activity [1]: significantly noted; EC50 (human GPR40): 2 ± 0.3 µM; EC50 (Rat GPR40): 4 ± 0.7 µM
			eicosatrienoic acid	specifically responsive	
			CC(=O)O [Acetic acid (C2), Acetic acid]		EC50 Mouse GPR40 (Mouse GPR40; [5]): inactive; EC50 Human GPR40 (human GPR40; [5]): inactive; EC50 Rat GPR40 (Rat GPR40; [5]): inactive
6.5 ± 1.5 µM	4.7 ± 0.4 µM	11 ± 1.5 µM	CCCCCCCC/C=C/CCCCCCCC(=O)O [Elaidic acid (C18:1), Elaidic acid]		
			CC(C)=CCCC(C)=CCCC(C)=CC(=O)O [farnesoic acid]	specifically responsive	
			CCCCCCCCC#CCC#CCC#CCCCC(=O)O [5.8.11-eicosatriynoic acid]	specifically responsive	
			docosatrienoic acid	specifically responsive	
> 300 µM	> 300 µM	> 300 µM	CCCCCCCCCCCCCCCCCC(=O)O [Stearic acid (C18), Stearic acid]		
6 ± 0.8 µM			CCCCCCCCCCCCCC(=O)O [Myristic acid (C14), Myristic acid]		
			CCCCCC#CCC#CCC#CCC#CCCCC(=O)O [5.8.11.14-eicosatetraynoic acid]	specifically responsive	
			CCCCC/C=C\C/C=C\C/C=C\C/C=C\CCCCCC(=O)O [adrenic acid]	specifically responsive	
4.9 ± 0.8 µM	2.3 ± 0.4 µM	9.8 ± 0.6 µM	CC/C=C\C/C=C\C/C=C\C/C=C\C/C=C\CCCC(=O)O [Eicosapentaenoic acid (C20:5), Eicosapentaenoic acid]		
5.6 ± 1.6 µM	5.7 ± 1.4 µM	13 ± 3.3 µM	CCCCCCCCCCCC(=O)O [Lauric acid (C12), Lauric acid]	specifically responsive	
			eicosadienoic acid	specifically responsive	
			CCCC(=O)O [Butyric acid (C4), Butyric acid]		intracellular Ca^2+ level in MIN6 (MIN6 cells): not observed; EC50 Mouse GPR40 (Mouse GPR40; [5]): inactive; insulin secretion enhancing activity [1]: did not show any significant insulin secretion enhancing activity; EC50 Human GPR40 (human GPR40; [5]): inactive; EC50 Rat GPR40 (Rat GPR40; [5]): inactive

Compound	EC50 (Mouse GPR40; [2])	EC50 (human GPR40; [3])	EC50 (Rat GPR40; [4])	response (increase in intracellular calcium level) of GPR40-expressing CHO-K1 cells (human-derived GPR40)	further results
CCCCCCCC(=O)O [Caprylic acid (C8), Caprylic acid]		> 300 µM	> 300 µM		EC50 Mouse GPR40 (Mouse GPR40; [5]): inactive
CCCCCC(=O)O [Caproic acid (C6), Caproic acid]			> 300 µM		EC50 Mouse GPR40 (Mouse GPR40; [5]): inactive; EC50 Human GPR40 (human GPR40; [5]): inactive
